Measurements from article PMC6900522 (Proceedings of the National Academy of Sciences of the …, 2019).

What was measured:
GUN1-PS = biological target: T1, GUN1-PS (Arabidopsis thaliana, UniProt Q9SIC9); test: differential absorption spectrophotometry; assay type: binding
T1 sequence (Q9SIC9 232-918): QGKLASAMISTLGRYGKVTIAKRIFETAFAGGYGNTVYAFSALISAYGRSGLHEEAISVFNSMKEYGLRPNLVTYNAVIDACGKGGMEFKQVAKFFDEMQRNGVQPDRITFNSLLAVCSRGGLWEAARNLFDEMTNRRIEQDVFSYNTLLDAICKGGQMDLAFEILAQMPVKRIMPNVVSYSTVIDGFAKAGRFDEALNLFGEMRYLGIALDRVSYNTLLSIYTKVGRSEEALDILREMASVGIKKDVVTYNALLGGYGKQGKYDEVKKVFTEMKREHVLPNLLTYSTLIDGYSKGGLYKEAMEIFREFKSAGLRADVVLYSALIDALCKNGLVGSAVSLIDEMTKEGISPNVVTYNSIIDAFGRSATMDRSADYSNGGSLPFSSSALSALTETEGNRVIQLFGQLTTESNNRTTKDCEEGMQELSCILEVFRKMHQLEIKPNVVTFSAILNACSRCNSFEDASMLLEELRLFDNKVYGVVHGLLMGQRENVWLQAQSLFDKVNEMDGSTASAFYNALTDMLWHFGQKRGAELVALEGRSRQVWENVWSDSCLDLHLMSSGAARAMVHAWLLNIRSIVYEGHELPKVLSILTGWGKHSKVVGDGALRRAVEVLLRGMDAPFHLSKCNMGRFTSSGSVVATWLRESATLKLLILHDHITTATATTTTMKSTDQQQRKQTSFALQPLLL

purified protein = substrate: C=CC1=C(C)c2cc3[nH]c(cc4nc(cc5[nH]c(cc1n2)c(C)c5CCC(=O)O)C(CCC(=O)O)=C4C)c(C)c3C=C; test: purified protein; conditions: Zn chelation; without GUN1-PS

Row | Kd (GUN1-PS) [µM] | Molecule | Km (purified protein) [µM]
1 | 4.42 ± 0.56 | C=CC1=C(C)c2cc3[nH]c(cc4nc(cc5[nH]c(cc1n2)c(C)c5CCC(=O)O)C(CCC(=O)O)=C4C)c(C)c3C=C [Proto IX] | 
2 | 6.08 ± 1.11 | C=CC1=C(C)C2=Cc3c(C=C)c(C)c4[n]3[Fe]([Cl])[n]3c(c(C)c(CCC(=O)O)c3=CC3=NC(=C4)C(C)=C3CCC(=O)O)=CC1=N2 [hemin] | 
3 |  | FC1 (Arabidopsis thaliana) (protein) CDIKERSFGESMTITNRGLSFKTNVFEQARSVTGDCSYDETSAKARSHVVAEDKIGVLLLNLGGPETLNDVQPFLYNLFADPDIIRLPRPFQFLQGTIAKFISVVRAPKSKEGYAAIGGGSPLRKITDEQADAIKMSLQAKNIAANVYVGMRYWYPFTEEAVQQIKKDKITRLVVLPLYPQYSISTTGSSIRVLQDLFRKDPYLAGVPVAIIKSWYQRRGYVNSMADLIEKELQTFSDPKEVMIFFSAHGVPVSYVENAGDPYQKQMEECIDLIMEELKARGVLNDHKLAYQSRVGPVQWLKPYTDEVLVDLGKSGVKSLLAVPVSFVSEHIETLEEIDMEYRELALESGVENWGRVPALGLTPSFITDLADAVIESLPSAEAMSNPNAVVDSEDSESSDAFSYIVKMFFGSILAFVLLLSPKMFHAFRNL | 26.5
